The nature of one data set: cells. As to conditions: Homo sapiens, IGROV-1, 72 h.
The test system of a further data set is IGROV-1. Description: cells. As to conditions: Homo sapiens, IGROV-1, 72 h.
Data set [1] deals with T1, Protein deacetylase HDAC6 (Homo sapiens, UniProt Q9UBN7).
T1 sequence (Q9UBN7 whole entry): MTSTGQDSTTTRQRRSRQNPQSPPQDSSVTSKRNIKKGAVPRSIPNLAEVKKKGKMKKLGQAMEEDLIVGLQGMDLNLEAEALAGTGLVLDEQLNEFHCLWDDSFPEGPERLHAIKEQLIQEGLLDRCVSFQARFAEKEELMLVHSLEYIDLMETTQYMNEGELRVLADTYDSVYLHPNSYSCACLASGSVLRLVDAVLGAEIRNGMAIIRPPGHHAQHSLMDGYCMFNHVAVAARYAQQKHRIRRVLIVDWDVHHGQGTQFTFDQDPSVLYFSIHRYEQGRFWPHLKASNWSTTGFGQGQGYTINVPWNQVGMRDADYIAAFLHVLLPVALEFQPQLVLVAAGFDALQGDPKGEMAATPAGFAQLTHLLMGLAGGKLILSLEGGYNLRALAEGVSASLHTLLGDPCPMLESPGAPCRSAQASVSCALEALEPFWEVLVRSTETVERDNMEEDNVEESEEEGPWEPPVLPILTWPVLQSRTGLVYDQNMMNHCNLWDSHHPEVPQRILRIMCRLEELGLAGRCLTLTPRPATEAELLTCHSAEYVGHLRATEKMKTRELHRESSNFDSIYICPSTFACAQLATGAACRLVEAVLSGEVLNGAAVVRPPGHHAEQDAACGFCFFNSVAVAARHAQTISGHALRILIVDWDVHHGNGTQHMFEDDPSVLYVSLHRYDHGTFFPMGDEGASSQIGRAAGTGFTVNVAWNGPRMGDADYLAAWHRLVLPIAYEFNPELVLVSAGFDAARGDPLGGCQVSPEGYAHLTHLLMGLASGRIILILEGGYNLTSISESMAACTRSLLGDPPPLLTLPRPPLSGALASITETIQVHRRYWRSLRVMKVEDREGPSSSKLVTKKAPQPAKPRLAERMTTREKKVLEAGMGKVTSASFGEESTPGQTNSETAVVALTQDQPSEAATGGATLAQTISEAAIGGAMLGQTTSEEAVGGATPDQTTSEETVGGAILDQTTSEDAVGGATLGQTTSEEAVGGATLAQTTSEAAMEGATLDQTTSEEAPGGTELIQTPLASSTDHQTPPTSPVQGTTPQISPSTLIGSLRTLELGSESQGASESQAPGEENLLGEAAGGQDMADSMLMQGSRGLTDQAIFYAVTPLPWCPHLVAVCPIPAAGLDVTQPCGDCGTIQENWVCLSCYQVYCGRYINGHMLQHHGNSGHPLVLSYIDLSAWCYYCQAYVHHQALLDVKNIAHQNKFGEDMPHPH
Description: Inhibition of HDAC6 (unknown origin) incubated for 1 hr by fluor de lys substrate based fluorescence method.

Another data set concerns the target T2, Histone deacetylase 8 (Homo sapiens, UniProt Q9BY41).
T2 sequence (Q9BY41 whole entry): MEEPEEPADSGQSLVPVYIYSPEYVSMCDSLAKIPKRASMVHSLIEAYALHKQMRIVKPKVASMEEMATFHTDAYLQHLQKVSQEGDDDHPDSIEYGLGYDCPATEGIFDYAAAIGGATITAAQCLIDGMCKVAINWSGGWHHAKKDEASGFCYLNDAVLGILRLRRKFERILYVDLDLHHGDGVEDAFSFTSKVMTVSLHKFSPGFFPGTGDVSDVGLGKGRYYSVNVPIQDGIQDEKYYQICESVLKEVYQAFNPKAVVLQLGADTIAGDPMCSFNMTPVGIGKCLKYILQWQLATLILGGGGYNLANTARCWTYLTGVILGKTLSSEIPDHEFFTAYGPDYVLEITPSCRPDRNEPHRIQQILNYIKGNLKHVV
Description: Inhibition of HDAC8 (unknown origin) incubated for 1 hr by fluor de lys substrate based fluorescence method.

The next data set deals with Histone deacetylase 1 (Homo sapiens, UniProt Q13547). Description: Inhibition of HDAC1 (unknown origin) incubated for 1 hr by fluor de lys substrate based fluorescence method.
Sequence of Histone deacetylase 1 (Q13547 whole entry): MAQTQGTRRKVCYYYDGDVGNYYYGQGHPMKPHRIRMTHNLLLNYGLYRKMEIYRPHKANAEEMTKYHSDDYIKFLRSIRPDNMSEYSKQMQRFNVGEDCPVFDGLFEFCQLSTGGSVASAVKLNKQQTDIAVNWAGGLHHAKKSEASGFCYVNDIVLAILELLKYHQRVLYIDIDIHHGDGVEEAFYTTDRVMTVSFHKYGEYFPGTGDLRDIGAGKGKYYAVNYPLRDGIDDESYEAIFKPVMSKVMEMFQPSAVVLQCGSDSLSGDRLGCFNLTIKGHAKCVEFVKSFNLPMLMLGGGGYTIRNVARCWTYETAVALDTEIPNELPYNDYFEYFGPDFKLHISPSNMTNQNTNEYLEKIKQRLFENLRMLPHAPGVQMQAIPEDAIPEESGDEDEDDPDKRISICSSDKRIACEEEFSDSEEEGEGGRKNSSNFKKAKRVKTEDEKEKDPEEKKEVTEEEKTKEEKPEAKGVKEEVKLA
The next data set concerns Mus musculus. Description: Toxicity in human HCT116 cells xenografted Swiss mouse at 10 mg/kg, ip dosed starting day 1 post tumor implantation and repeated every 7 days for 4 times. The format is organism-based, HCT-116. As to conditions: in vivo, 168 h. (In general: In xenograft studies the graft and the host belong to different species.)
Another data set relates to HCT-116. Description: Antitumor activity against human HCT116 cells xenografted in Swiss mouse assessed as tumor growth inhibition at 10 mg/kg, ip dosed starting day 1 post tumor implantation and repeated every 7 days for 4 times. The format is functional, organism-based.

The structures appear in SMILES notation. Calls of active or inactive are those of the source. The rule behind the calls is not given here. A value given as a limit tells only on which side of the number the result lay.

As usually defined, the IC50 is the point on the concentration scale where inhibition reaches its midpoint. Low readings indicate inhibition by little substance, high ones a need for much substance.

In the case of `CC(C)[C@H]1NC(=O)C[C@H]2/C=C/CCSSC[C@@H](NC1=O)C(=O)Nc1cccc(c1)CC(=O)O2`, the IC50 in “cells” and in the data set with IGROV-1 was > 10000 nM in each case.
Regarding `CC(C)[C@H]1NC(=O)C[C@H]2/C=C/CCSSC[C@@H](NC1=O)C(=O)NCc1ccc(Br)cc1CC(=O)O2`, the values for the IC50 in “cells” and in the data set on IGROV-1 were 380 nM and 2750 nM, respectively.
In the same order, the values of `CC(C)[C@H]1NC(=O)C[C@H]2/C=C/CCSSC[C@@H](NC1=O)C(=O)N(C)Cc1ccccc1CC(=O)O2` are > 10000 nM and > 10000 nM.
In the same order, the values of `CC(C)[C@H]1NC(=O)C[C@H]2/C=C/CCSSC[C@@H](NC1=O)C(=O)NCc1ccc(Cl)cc1CC(=O)O2` are 470 nM and 3500 nM.
In the same order, the values of `CC(C)[C@H]1NC(=O)C[C@H]2/C=C/CCSSC[C@@H](NC1=O)C(=O)NC1CCC(CC1)C(=O)O2` are 1500 nM and 7000 nM.
Take `CCCCCCCC(=O)SCC/C=C/[C@@H]1CC(=O)N[C@H](C(C)C)C(=O)N[C@H](C)C(=O)N[C@H](C(C)C)C(=O)NCC(=O)O1`: the IC50 stood at 9 nM in the data set “cells”; 18300 nM in data set [1]; 230 nM in the data set with IGROV-1; 14300 nM against Histone deacetylase 8; 1270 nM on Histone deacetylase 1.
In the case of `CC(C)[C@H]1NC(=O)C[C@H]2/C=C/CCSSC[C@@H](NC1=O)C(=O)Nc1ccccc1C(=O)NCC(=O)O2`, the IC50 in the data set “cells” and in the data set on IGROV-1 was > 10000 nM each time.
On to `CC(=O)SCC/C=C/[C@@H]1CC(=O)N[C@H](C(C)C)C(=O)N[C@H](Cc2ccccc2)C(=O)N[C@H](C(C)C)c2cn(nn2)CC(=O)O1`, for which the IC50 in the data set “cells” turned out to be 190 nM; in data set [1] it was 8670 nM; in the data set on IGROV-1, 3100 nM; on Histone deacetylase 8 it was 1800 nM; against Histone deacetylase 1, 1050 nM.
For the compound `CC(C)[C@H]1NC(=O)C[C@H]2/C=C/CCSSC[C@@H](NC1=O)C(=O)NCc1[nH]c3ccccc3c1CC(=O)O2`, the IC50 in “cells” was 780 nM; in the data set on IGROV-1, 2810 nM.
In the same order, the values of `CC(C)[C@H]1NC(=O)C[C@H]2/C=C/CCSSC[C@@H](NC1=O)C(=O)NCc1cc(OC(F)(F)F)ccc1CC(=O)O2` are 180 nM and 510 nM.
In the same order, the values of `C=C(C)[C@H]1NC(=O)[C@H]2CSSCC/C=C/[C@H](CC(=O)N[C@H](C)C(=O)N2)OC(=O)C[C@@H]1O` [SPIRUCHOSTATIN A] are 15 nM and 25 nM.
In the same order, the values of `CC[C@H]1NC(=O)[C@@H](C(C)C)NC(=O)C[C@@H](/C=C/CCSC(C)=O)OC(=O)CNC(=O)[C@@H](C(C)C)NC1=O` are 270 nM and 6000 nM.
Consider `CC(=O)SCC/C=C/[C@@H]1CC(=O)N[C@H](Cc2ccccc2)C(=O)N[C@H](C)C(=O)N[C@H](C(C)C)c2cn(nn2)CC(=O)O1`, for which the IC50 in the data set “cells” worked out at 120 nM; with IGROV-1 it was 970 nM.
For `CC(=O)SCC/C=C/[C@@H]1CC(=O)N[C@H](C(C)C)C(=O)N[C@H](Cc2cn(C)cn2)C(=O)N[C@H](C(C)C)c2cn(nn2)CC(=O)O1`, the IC50 in the data set “cells” is 1500 nM; in data set [1], 9890 nM; in the data set with IGROV-1 it was 10600 nM; against Histone deacetylase 8, 1620 nM; at Histone deacetylase 1, 1040 nM.
`CC(C)[C@H]1NC(=O)C[C@H]2/C=C/CCSSC[C@@H](NC1=O)C(=O)N[C@H](C(C)C)c1cn(nn1)CC(=O)O2`: the values for the IC50 in the data set “cells” and in the data set with IGROV-1 were 110 nM and 400 nM, respectively.
In the same order, the values of `CC(C)[C@@H]1NC(=O)CC(=O)O[C@@H]2/C=C/CCSSC[C@@H](NC(=O)[C@@H](C(C)C)NC(=O)C2)C(=O)N1` are 11000 nM and 3300 nM.
In the same order, the values of `CC(=O)SCC/C=C/[C@@H]1CC(=O)N[C@H](C(C)C)C(=O)N[C@H](Cc2ccc(O)cc2)C(=O)N[C@H](C(C)C)c2cn(nn2)CC(=O)O1` are 2200 nM and > 10000 nM.
For `CC(C)[C@H]1NC(=O)C[C@H]2/C=C/CCSSC[C@@H](NC1=O)C(=O)NCc1ccccc1CC(=O)O2` the same measures were 400 nM and 2500 nM.
As for `CC(C)[C@H]1NC(=O)C[C@H]2/C=C/CCSSC[C@@H](NC1=O)C(=O)NCc1cc(-c3ccccc3)ccc1CC(=O)O2`, the IC50 in “cells” was determined as 200 nM; in the data set with IGROV-1, 600 nM. For the same compound, the Activity result in the data set on Mus musculus is listed as “Non-toxic”. The TGI result with HCT-116 is “Active”.
`CC(C)[C@H]1NC(=O)C[C@H]2/C=C/CCSSC[C@@H](NC1=O)C(=O)N1CCC(CC1)CC(=O)O2`: the IC50 in the data set “cells” and with IGROV-1 was > 10000 nM in each case.
With `CCCCCCCCSSCC/C=C/[C@@H]1CC(=O)N[C@H](C(C)C)C(=O)N[C@H](C)C(=O)N[C@H](C(C)C)C(=O)NCC(=O)O1`, the IC50 was 30 nM in “cells”; 8900 nM in data set [1]; 700 nM in the data set on IGROV-1; 8010 nM against Histone deacetylase 8; 820 nM against Histone deacetylase 1.
For `CC(C)[C@H]1NC(=O)C[C@H]2/C=C/CCSSC[C@@H](NC1=O)C(=O)NCc1cc(Br)ccc1CC(=O)O2`, the 50% inhibitory concentration (IC50) amounted to 2500 nM in the data set “cells” and 2000 nM in the data set with IGROV-1.
